From ChEMBL document CHEMBL1138976, “Anti-HIV activity of stilbene-related heterocyclic compounds” (Bioorg Med Chem Lett, 2006)
Activity calls are given as the source filed them. The rule behind the calls is not given here.

Experiments:
[1] = target: T1, Protein Tat (Human immunodeficiency virus type 1 group M subtype B (isolate PCV12)(HIV-1)) (UniProt P04326); assay: Inhibition of Tat activity in HeLa cells transfected with Tat-Luc at 100 uM; assay type: functional, cell-based
T1 sequence (whole entry): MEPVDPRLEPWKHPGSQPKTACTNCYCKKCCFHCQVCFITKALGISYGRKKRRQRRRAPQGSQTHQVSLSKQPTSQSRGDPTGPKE

[2] = test system: Human immunodeficiency virus; assay: Ratio of cytotoxic activity to anti HIV activity; assay type: functional
[3] = Cytotoxicity by Propidium Iodide staining
[4] = test system: Human immunodeficiency virus; assay: Specificity against NF-kappaB and Tat proteins assessed by activity in Hela Tet-ON assay; assay type: functional
[5] = test system: Human immunodeficiency virus; assay: Inhibition of HIV replication by recombinant virus assay; assay type: functional, organism-based
[6] = target: Nuclear factor NF-kappa-B complex (Homo sapiens) (UniProt Q00653+P19838+Q04206); assay: Inhibition of TNFalpha activated NF-kappaB mediated transactivation of HIV-1 LTR Luc in 5.1 cells at 100 uM; assay type: functional, cell-based
Nuclear factor NF-kappa-B complex (Homo sapiens), sequence (P19838 whole entry, looked up): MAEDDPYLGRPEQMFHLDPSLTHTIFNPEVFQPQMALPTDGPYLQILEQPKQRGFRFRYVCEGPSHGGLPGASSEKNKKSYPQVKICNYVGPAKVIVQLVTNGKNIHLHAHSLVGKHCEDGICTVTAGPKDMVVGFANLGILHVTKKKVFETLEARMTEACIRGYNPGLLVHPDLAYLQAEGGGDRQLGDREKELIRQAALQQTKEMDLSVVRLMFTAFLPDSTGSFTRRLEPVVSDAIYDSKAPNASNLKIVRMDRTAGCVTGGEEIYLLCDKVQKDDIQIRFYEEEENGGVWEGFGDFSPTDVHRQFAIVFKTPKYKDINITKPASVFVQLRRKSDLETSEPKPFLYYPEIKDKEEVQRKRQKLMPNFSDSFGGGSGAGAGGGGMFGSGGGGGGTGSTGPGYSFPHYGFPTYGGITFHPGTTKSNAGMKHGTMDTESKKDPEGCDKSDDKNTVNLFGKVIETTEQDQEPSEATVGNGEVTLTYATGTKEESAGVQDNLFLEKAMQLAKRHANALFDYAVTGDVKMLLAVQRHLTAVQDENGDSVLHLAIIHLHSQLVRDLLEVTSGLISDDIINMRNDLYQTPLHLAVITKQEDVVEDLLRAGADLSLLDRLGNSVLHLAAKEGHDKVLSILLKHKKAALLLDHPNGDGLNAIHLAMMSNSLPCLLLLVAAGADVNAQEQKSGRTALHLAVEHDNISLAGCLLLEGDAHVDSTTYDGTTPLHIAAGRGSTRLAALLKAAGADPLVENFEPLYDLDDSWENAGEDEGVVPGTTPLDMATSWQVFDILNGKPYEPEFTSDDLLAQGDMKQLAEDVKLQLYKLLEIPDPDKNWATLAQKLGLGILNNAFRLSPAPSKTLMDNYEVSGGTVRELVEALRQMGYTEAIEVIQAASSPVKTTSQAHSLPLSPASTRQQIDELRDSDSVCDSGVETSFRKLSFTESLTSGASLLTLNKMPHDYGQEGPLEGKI
Nuclear factor NF-kappa-B complex (Homo sapiens), sequence (Q00653 whole entry, looked up): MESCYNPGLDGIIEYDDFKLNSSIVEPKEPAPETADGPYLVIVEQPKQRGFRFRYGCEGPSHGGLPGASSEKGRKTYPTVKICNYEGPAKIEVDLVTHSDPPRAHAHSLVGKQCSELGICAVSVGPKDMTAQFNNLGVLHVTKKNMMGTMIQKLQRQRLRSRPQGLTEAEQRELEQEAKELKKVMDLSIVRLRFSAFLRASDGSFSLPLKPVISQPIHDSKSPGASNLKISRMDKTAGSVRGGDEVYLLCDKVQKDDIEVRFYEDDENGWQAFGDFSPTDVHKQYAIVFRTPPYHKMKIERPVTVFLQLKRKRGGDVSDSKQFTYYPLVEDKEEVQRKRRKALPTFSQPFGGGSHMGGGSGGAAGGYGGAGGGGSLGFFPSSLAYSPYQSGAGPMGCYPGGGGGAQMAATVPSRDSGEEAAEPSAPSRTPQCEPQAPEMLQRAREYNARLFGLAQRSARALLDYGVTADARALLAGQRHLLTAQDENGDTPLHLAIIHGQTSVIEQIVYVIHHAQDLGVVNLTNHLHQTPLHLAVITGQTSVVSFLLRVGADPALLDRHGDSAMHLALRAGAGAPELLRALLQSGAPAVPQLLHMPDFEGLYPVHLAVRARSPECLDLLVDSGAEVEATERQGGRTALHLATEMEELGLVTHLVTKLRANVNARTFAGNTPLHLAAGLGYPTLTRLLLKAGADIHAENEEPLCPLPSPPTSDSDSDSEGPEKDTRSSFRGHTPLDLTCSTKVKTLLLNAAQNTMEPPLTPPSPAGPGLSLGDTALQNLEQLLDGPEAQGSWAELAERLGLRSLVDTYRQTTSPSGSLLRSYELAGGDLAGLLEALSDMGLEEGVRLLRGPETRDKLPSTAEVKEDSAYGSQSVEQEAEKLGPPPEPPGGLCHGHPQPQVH
Nuclear factor NF-kappa-B complex (Homo sapiens), sequence (Q04206 whole entry, looked up): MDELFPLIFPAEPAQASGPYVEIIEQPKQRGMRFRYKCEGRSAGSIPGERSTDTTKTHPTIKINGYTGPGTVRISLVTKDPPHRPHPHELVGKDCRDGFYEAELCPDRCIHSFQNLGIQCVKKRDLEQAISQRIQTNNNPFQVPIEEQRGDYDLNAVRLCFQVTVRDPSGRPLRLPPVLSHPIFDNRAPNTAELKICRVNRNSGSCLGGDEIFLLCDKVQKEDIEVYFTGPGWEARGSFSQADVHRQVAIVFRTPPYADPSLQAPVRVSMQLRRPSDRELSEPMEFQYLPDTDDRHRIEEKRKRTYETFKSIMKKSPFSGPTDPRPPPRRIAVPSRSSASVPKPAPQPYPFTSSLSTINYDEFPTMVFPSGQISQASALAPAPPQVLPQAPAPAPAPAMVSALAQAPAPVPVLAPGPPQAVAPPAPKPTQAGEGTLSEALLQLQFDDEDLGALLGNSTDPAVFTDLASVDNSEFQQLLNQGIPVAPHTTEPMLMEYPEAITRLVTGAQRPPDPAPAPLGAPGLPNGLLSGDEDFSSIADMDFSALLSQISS

inhibition [1]	IC50 ([5]; Human immunodeficiency virus 1)	inhibition [6]	IC50 [5]	Structure (SMILES)	Ratio CC50/IC50 [2]	CC50 [3]	Activity [4]
38.4%	71 µM	< 0%		OC1(Cc2ccc(Cl)cc2)c2ccccc2C2=NCCN21 (stereo not drawn)		> 168 µM	inactive
6.5%	> 50 µM	< 0%		O=C1O/C(=C\c2cccc3ccccc23)c2ccccc21			
89.7%	23.4 µM	86.7%		CSc1ccc(/C=C2\OC(=O)c3ccccc32)cc1	>8	> 187 µM	Active
18.3%	21.6 µM	73%		Cn1nc(Cc2ccccc2Cl)c2ccccc2c1=O	>8.2	> 176 µM	inactive
51.2%	60.8 µM	100%		OC1(Cc2ccc3ccccc3c2)c2ccccc2C2=NCCCN21 (stereo not drawn)	1.3	81 µM	inactive
< 0%	88.1 µM	< 0%		O=c1c2ccccc2c(Cc2ccc(Cl)cc2)nn1-c1ccc(Br)cc1	1	91.8 µM	
< 0%		71%	133 µM	Cc1ccc2c(c1)/C(=C/c1ccccc1Cl)OC2=O	>1.4	> 185 µM	inactive
11.5%	12.8 µM	82.1%		CC(C)(C)n1nc(Cc2ccc(Cl)cc2)c2ccccc2c1=O	5.6	72.1 µM	inactive
13.9%	61.5 µM	99.8%		CSc1ccc(CC2(O)c3ccccc3C3=NCCCN32)cc1 (stereo not drawn)	2.3	142 µM	inactive
86.6%	13.8 µM	< 0%		OC1(Cc2ccc(Cl)cc2Cl)c2ccccc2C2=NCCN21 (stereo not drawn)	6.3	87.5 µM	inactive
29.6%	89.5 µM	54.8%		O=c1c2ccccc2c(Cc2ccc(Cl)cc2)nn1-c1ccc([N+](=O)[O-])cc1	1.1	96.3 µM	inactive
76.8%		< 0%	24.4 µM	O=C1O/C(=C\c2ccccc2Cl)c2ccccc21 (stereo in doubt; 1b)	>8	> 195 µM	inactive
75.3%	27.6 µM	100%		COc1ccc(CC2(O)c3cc(Cl)c(Cl)cc3C3=NCCN32)cc1 (stereo not drawn)	1.6	44.1 µM	inactive
28.4%	19.5 µM	14.9%		Oc1nnc(Cc2ccc(Cl)c(Cl)c2)c2cc(Cl)c(Cl)cc12	3.3	64.7 µM	
99.6%	22.8 µM	100%		OC1(Cc2ccccc2Cl)c2cc(Cl)c(Cl)cc2C2=NCCN21 (stereo not drawn)	1.3	30.1 µM	Active
43.2%	11 µM	100%		Cn1nc(Cc2cccc3ccccc23)c2ccccc2c1=O	5.7	62.9 µM	Active

More lines, now with the values behind:

Structure (SMILES)	inhibition [1]	IC50 ([5]; Human immunodeficiency virus 1)	inhibition [6]	IC50 [5]	Ratio CC50/IC50 [2]	CC50 [3]	Activity [4]
C=CCn1nc(Cc2ccc(OC)cc2)c2ccccc2c1=O	2.9%	30.5 µM	50%		2.3	68.6 µM	inactive
Cn1nc(Cc2ccc3c(c2)OCO3)c2ccccc2c1=O	25.5%	27.4 µM	97.2%		4.8	131 µM	inactive
Oc1nnc(Cc2ccc(Cl)cc2Cl)c2ccccc12	53.9%	96.2 µM	99%		0.6	58 µM	inactive
Cc1ccc2c(c1)/C(=C/c1ccc(Cl)cc1)OC2=O	91.8%	15.8 µM	96.8%				Active
OC1(Cc2ccccc2Cl)c2ccccc2C2=NCCCN21 (stereo not drawn)	< 0%	66.7 µM	99.7%		1.2	78.6 µM	inactive
Oc1nnc(Cc2ccccc2Cl)c2cc(Cl)c(Cl)cc12	11.2%	22 µM	65.9%		>6.7	> 147 µM	inactive
Cn1nc(Cc2ccccc2)c2ccccc2c1=O	11.4%	47.5 µM	19.4%		>3.3	> 156 µM	
O=C1O/C(=C\c2ccc3c(c2)OCO3)c2ccccc21	87.2%	12.2 µM	91.8%		11.3	138 µM	Active
Cn1nc(Cc2ccc3ccccc3c2)c2ccccc2c1=O	11.8%	16.6 µM	99.9%		3.5	57.2 µM	Active
O=C1O/C(=C\c2ccc(Cl)cc2)c2ccccc21	84.6%	23.8 µM	84.8%		>8.2	> 195 µM	Active
CCn1nc(Cc2ccc(OC)cc2)c2ccccc2c1=O	14.2%	22.3 µM	93.5%		4	89.5 µM	inactive
COc1ccc(Cc2nnc(O)c3ccccc23)cc1	< 0%	15.7 µM	12.6%		>9.5	> 149 µM	
COc1cc(Cc2nnc(O)c3ccccc23)cc(OC)c1OC	< 0%	51.7 µM	96.5%		2.6	135 µM	inactive
O=C1O/C(=C\c2ccc(Cl)cc2)c2cc(Cl)c(Cl)cc21	< 0%	45.6 µM	3.2%		>3.4	> 154 µM	
COc1ccc(CC2(O)c3ccccc3C3=NCCCN32)cc1 (stereo not drawn)	3.8%	74.2 µM	< 0%		>2.2	> 162 µM	
Cn1nc(Cc2ccc(Cl)cc2Cl)c2ccccc2c1=O	14%	18.8 µM	< 0%		6	112 µM	
Oc1nnc(Cc2ccccc2Cl)c2ccccc12	29.8%	41.6 µM	67.3%		>4.5	> 185 µM	inactive
COc1ccc(/C=C2\OC(=O)c3ccccc32)cc1	74%	14.3 µM	87.6%				Active
CCCCn1nc(Cc2ccc(OC)c(OC)c2)c2ccccc2c1=O	6.7%	16 µM	83%		4.4	70.3 µM	Active
OC1(Cc2ccc(Cl)c(Cl)c2)c2ccccc2C2=NCCCN21 (stereo not drawn)	60%	26.1 µM	67.7%		3.3	85.2 µM	inactive
O=c1c2ccccc2c(Cc2ccc(Cl)cc2)nn1-c1ccccc1	< 0%	58.7 µM	86.4%		1.2	67.7 µM	inactive
O=C1O/C(=C\c2ccc(Cl)cc2)c2c1cccc2[N+](=O)[O-]	63.7%	119 µM	< 0%		<0.2	< 20.7 µM	Active
